Experiment: Hepatic Stability Assay (in vitro half-life method)
Format: in vitro ADME
Design: dose or concentration left out as unconfirmed
Conditions: pooled cryopreserved hepatocytes, 37° C., 1×10^6 cells/mL, 0-6 hours, LC-MS/MS, 39.5 hours is the maximum detectable half life, read-out: t½ (converted)
Experimental: Hepatic Stability Assay The metabolic stability of certain compounds disclosed herein was assessed in vitro in pooled cryopreserved hepatocytes using the in vitro half-life method. Incubations were at 37° C. and final concentrations in the incubations were 1×10^6 cells/mL and […] test concentration of the compound. Aliquots were sequentially removed after 0, 1, 3 and 6 hours and analyzed by LC-MS/MS. In vitro half-life was determined by measuring the rate of disappearance of the compound and then scaled to predicted hepatic clearance using the well-stirred model. […] As such, compounds having a value of 39.5 may have a half live that exceeds 39.5 hours.

CNC(=O)C1(NC(=O)C(=O)c2c(C)c(C(=O)Nc3ccc(F)c(Cl)c3)n3c2CCC3C)CC(F)(F)C1 (racemic) [Example 18, N-(3-chloro-4-fluorophenyl)-7-(2-((3,3-difluoro-1-(methylcarbamoyl)cyclobutyl)amino)-2-oxoacetyl)-3,6-dimethyl-2,3-dihydro-1H-pyrrolizine-5-carboxamide]
half-life: 6 h

Cc1c(C(=O)C(=O)N[C@H](C)C(F)(F)F)c2n(c1C(=O)Nc1ccc(F)c(Cl)c1)C(C)CC2 (mixture of isomers) [Example 20, N-(3-chloro-4-fluorophenyl)-3,6-dimethyl-7-(2-oxo-2-(((R)-1,1,1-trifluoropropan-2-yl)amino)acetyl)-2,3-dihydro-1H-pyrrolizine-5-carboxamide]
half-life: 14.3 h

Cc1c(C(=O)C(=O)N[C@H](C)C(F)(F)F)c2n(c1C(=O)Nc1ccc(F)c(Cl)c1)C(C)CC2 (single isomer, unassigned) [Example 24]
half-life: 5 h

Cc1c(C(=O)C(=O)N[C@H](C)C(F)(F)F)c2n(c1C(=O)Nc1ccc(F)c(Cl)c1)CCC2 [Example 2, (R)—N-(3-chloro-4-fluorophenyl)-6-methyl-7-(2-oxo-2-((1,1,1-trifluoropropan-2-yl)amino)acetyl)-2,3-dihydro-1H-pyrrolizine-5-carboxamide]
half-life: 15 h

CNC(=O)C1(NC(=O)C(=O)c2c(C)c(C(=O)Nc3ccc(F)c(Cl)c3)n3c2CCC3)CC(F)(F)C1 [Example 3, N-(3-chloro-4-fluorophenyl)-7-(2-((3,3-difluoro-1-(methylcarbamoyl)cyclobutyl)amino)-2-oxoacetyl)-6-methyl-2,3-dihydro-1H-pyrrolizine-5-carboxamide]
half-life: 35.1 h

CNC(=O)C1(NC(=O)C(=O)c2c(C)c(C(=O)Nc3ccc(F)c(Cl)c3)n3c2C[C@@H]2C[C@@H]23)CC(F)(F)C1 [Example 4, (1aS,6aS)—N-(3-chloro-4-fluorophenyl)-5-(2-((3,3-difluoro-1 (methylcarbamoyl)cyclobutyl)amino)-2-oxoacetyl)-4-methyl-1,1a,6,6a-tetrahydrocyclopropa[b]pyrrolizine-3-carboxamide]
half-life: 7.3 h

CNC(=O)C1(NC(=O)C(=O)c2c(C)c(C(=O)Nc3ccc(F)c(Cl)c3)n3c2C[C@H]2C[C@H]23)CC(F)(F)C1 [Example 5, (1aR,6aR)—N-(3-chloro-4-fluorophenyl)-5-(2-((3,3-difluoro-1-(methylcarbamoyl)cyclobutyl)amino)-2-oxoacetyl)-4-methyl-1,1a,6,6a-tetrahydrocyclopropa[b]pyrrolizine-3-carboxamide]
half-life: 5.2 h

Cc1c(C(=O)C(=O)NC2(CN3CC4(COC4)C3)CC(F)(F)C2)c2n(c1C(=O)Nc1ccc(F)c(Cl)c1)CCC2 [Example 10, 7-(2-((1-((2-oxa-6-azaspiro[3.3]heptan-6-yl)methyl)-3,3-difluorocyclobutyl)amino)-2-oxoacetyl)-N-(3-chloro-4-fluorophenyl)-6-methyl-2,3-dihydro-1H-pyrrolizine-5-carboxamide]
half-life: 1 h

CNC(=O)C1(NC(=O)C(=O)c2c(C)c(C(=O)Nc3ccc(F)c(Cl)c3)n3c2CCC3(C)C)CC(F)(F)C1 [Example 15, N-(3-chloro-4-fluorophenyl)-7-(2-((3,3-difluoro-1-(methylcarbamoyl)cyclobutyl)amino)-2-oxoacetyl)-3,3,6-trimethyl-2,3-dihydro-1H-pyrrolizine-5-carboxamide]
half-life: 0.5 h

Cc1c(C(=O)C(=O)N[C@H](C)C(F)(F)F)c2n(c1C(=O)Nc1ccc(F)c(Cl)c1)C(C)(C)CC2 [Example 17, (R)—N-(3-chloro-4-fluorophenyl)-3,3,6-trimethyl-7-(2-oxo-2-((1,1,1-trifluoropropan-2-yl)amino)acetyl)-2,3-dihydro-1H-pyrrolizine-5-carboxamide]
half-life: 0.6 h

Cc1c(C(=O)C(=O)NC2(c3c[nH]nn3)CC2)c2n(c1C(=O)Nc1cc(F)c(F)c(F)c1)CCC2 [Example 26, 7-(2-((1-(1H-1,2,3-triazol-4-yl)cyclopropyl)amino)-2-oxoacetyl)-6-methyl-N-(3,4,5-trifluorophenyl)-2,3-dihydro-1H-pyrrolizine-5-carboxamide]
half-life: 8.2 h

CNC(=O)C1(NC(=O)C(=O)c2c(C)c(C(=O)Nc3ccc(F)c(C#N)c3)n3c2C[C@H]2C[C@H]23)CC(F)(F)C1 [Example 30, (1aR,6aR)—N-(3-cyano-4-fluorophenyl)-5-(2-((3,3-difluoro-1-(methylcarbamoyl)cyclobutyl)amino)-2-oxoacetyl)-4-methyl-1,1a,6,6a-tetrahydrocyclopropa[b]pyrrolizine-3-carboxamide]
half-life: 27.2 h

Cc1c(C(=O)C(=O)NC2(c3c[nH]nn3)CC2)c2n(c1C(=O)Nc1ccc(F)c(F)c1)CCC2 [Example 43, 7-(2-((1-(1H-1,2,3-triazol-4-yl)cyclopropyl)amino)-2-oxoacetyl)-N-(3,4-difluorophenyl)-6-methyl-2,3-dihydro-1H-pyrrolizine-5-carboxamide]
half-life: 16 h

Cc1c(C(=O)C(=O)NC2(c3nnn(C)n3)CC2)c2n(c1C(=O)Nc1ccc(F)c(Cl)c1)CCC2 [Example 50, N-(3-chloro-4-fluorophenyl)-6-methyl-7-(2-((1-(2-methyl-2H-tetrazol-5-yl)cyclopropyl)amino)-2-oxoacetyl)-2,3-dihydro-1H-pyrrolizine-5-carboxamide]
half-life: 15.3 h

Cc1nnc(C2(NC(=O)C(=O)c3c(C)c(C(=O)Nc4ccc(F)c(Cl)c4)n4c3CCC4)CC2)[nH]1 [Example 51, N-(3-chloro-4-fluorophenyl)-6-methyl-7-(2-((1-(5-methyl-4H-1,2,4-triazol-3-yl)cyclopropyl)amino)-2-oxoacetyl)-2,3-dihydro-1H-pyrrolizine-5-carboxamide]
half-life: 9.5 h

Cc1c(C(=O)C(=O)NC2(c3c[nH]nn3)CC(F)(F)C2)c2n(c1C(=O)Nc1ccnc(C(F)F)c1)CCC2 [Example 55, 7-(2-((3,3-difluoro-1-(1H-1,2,3-triazol-4-yl)cyclobutyl)amino)-2-oxoacetyl)-N-(2-(difluoromethyl)pyridin-4-yl)-6-methyl-2,3-dihydro-1H-pyrrolizine-5-carboxamide]
half-life: 15.5 h

Cc1c(C(=O)C(=O)NC2(c3nncs3)CC2)c2n(c1C(=O)Nc1ccc(F)c(C#N)c1)[C@@H]1C[C@@H]1C2 [Example 58, (1aR,6aR)-5-(2-((1-(1,3,4-thiadiazol-2-yl)cyclopropyl)amino)-2-oxoacetyl)-N-(3-cyano-4-fluorophenyl)-4-methyl-1,1a,6,6a-tetrahydrocyclopropa[b]pyrrolizine-3-carboxamide]
half-life: 38.5 h

Cc1c(C(=O)C(=O)NC2(c3c[nH]nn3)CC(F)(F)C2)c2n(c1C(=O)Nc1ccnc(C(F)F)c1F)CCC2 [Example 59, 7-(2-((3,3-difluoro-1-(1H-1,2,3-triazol-4-yl)cyclobutyl)amino)-2-oxoacetyl)-N-(2-(difluoromethyl)-3-fluoropyridin-4-yl)-6-methyl-2,3-dihydro-1H-pyrrolizine-5-carboxamide]
half-life: 22.3 h

Cc1c(C(=O)C(=O)NC2(c3nncs3)CC2)c2n(c1C(=O)Nc1ccc(F)c(F)c1)[C@@H]1C[C@@H]1C2 [Example 61, (1aR,6aR)-5-(2-((1-(1,3,4-thiadiazol-2-yl)cyclopropyl)amino)-2-oxoacetyl)-N-(3,4-difluorophenyl)-4-methyl-1,1a,6,6a-tetrahydrocyclopropa[b]pyrrolizine-3-carboxamide]
half-life: 5.4 h

Cc1c(C(=O)C(=O)NC2(c3nncs3)CC2)c2n(c1C(=O)Nc1ccnc(C(F)F)c1)[C@@H]1C[C@@H]1C2 [Example 62, (1aR,6aR)-5-(2-((1-(1,3,4-thiadiazol-2-yl)cyclopropyl)amino)-2-oxoacetyl)-N-(2-(difluoromethyl)pyridin-4-yl)-4-methyl-1,1a,6,6a-tetrahydrocyclopropa[b]pyrrolizine-3-carboxamide]
half-life: 5.3 h

Cc1c(C(=O)C(=O)NC2(c3c[nH]nn3)CC2)c2n(c1C(=O)Nc1ccnc(C(F)F)c1F)[C@@H]1C[C@@H]1C2 [Example 63, (1aR,6aR)-5-(2-((1-(1H-1,2,3-triazol-4-yl)cyclopropyl)amino)-2-oxoacetyl)-N-(2-(difluoromethyl)-3-fluoropyridin-4-yl)-4-methyl-1,1a,6,6a-tetrahydrocyclopropa[b]pyrrolizine-3-carboxamide]
half-life: 11.2 h

Cc1nnc(C2(NC(=O)C(=O)c3c(C)c(C(=O)Nc4ccc(F)c(Cl)c4)n4c3CCC4)CC2)o1 [Example 64, N-(3-chloro-4-fluorophenyl)-6-methyl-7-(2-((1-(5-methyl-1,3,4-oxadiazol-2-yl)cyclopropyl)amino)-2-oxoacetyl)-2,3-dihydro-1H-pyrrolizine-5-carboxamide]
half-life: 13.2 h

Cc1nnc(C2(NC(=O)C(=O)c3c(C)c(C(=O)Nc4cc(F)c(F)c(F)c4)n4c3CCC4)CC2)o1 [Example 65, 6-methyl-7-(2-((1-(5-methyl-1,3,4-oxadiazol-2-yl)cyclopropyl)amino)-2-oxoacetyl)-N-(3,4,5-trifluorophenyl)-2,3-dihydro-1H-pyrrolizine-5-carboxamide]
half-life: 14.8 h

Cc1c(C(=O)C(=O)NC2(c3c[nH]nn3)CC2)c2n(c1C(=O)Nc1cccc(F)c1)CCC2 [Example 69, 7-(2-((1-(1H-1,2,3-triazol-4-yl)cyclopropyl)amino)-2-oxoacetyl)-N-(3-fluorophenyl)-6-methyl-2,3-dihydro-1H-pyrrolizine-5-carboxamide]
half-life: 17 h

Cc1c(C(=O)C(=O)NC2(C)CS(=O)(=O)C2)c2n(c1C(=O)Nc1ccc(F)c(Cl)c1)[C@@H]1C[C@@H]1C2 [Example 71, (1aR,6aR)—N-(3-chloro-4-fluorophenyl)-4-methyl-5-(2-((3-methyl-1,1-dioxidothietan-3-yl)amino)-2-oxoacetyl)-1,1a,6,6a-tetrahydrocyclopropa[b]pyrrolizine-3-carboxamide]
half-life: 7.3 h
